Laboratory results taken from publication PMC11156899, “High-throughput screening unveils nitazoxanide as a potent PRRSV inhibitor by targeting NMRAL1” (Nature Communications, 2024).

Assays:
PRRSV VR-2332 = experiment: Time-of-addition and lifecycle-stage experiments in Marc-145 cells; assay type: cell-based, Porcine Reproductive and Respiratory Syndrome Virus
From the text: The pronounced antiviral phenotype led us to explore the mechanism behind NTZ’s inhibition of PRRSV proliferation. We adopted a classic approach of administering the drug at various time points to study NTZ’s effect on the PRRSV lifecycle (Supplementary Fig. 9a). […] Identifying the target protein of NTZ became imperative. Using the isothermal shift assay (iTSA), we discovered 26 potential NTZ targets (Fig. 5a). Further, Cellular Thermal Shift Assay-Western Blot (CETSA-WB) temperature range (TR) experiment indicated Glycine amidinotransferase mitochondrial (GATM), NMRAL1, and PRRSV proteins NSP1α and NSP12 as potential NTZ targets (Fig. 5b, c). The compound concentration range (CCR) experiment also supported these four proteins as potential NTZ targets (Fig. 5d).
Supplementary Fig. 9: NTZ Inhibition of PRRSV Replication Stages.
(a) Schematic of the classic experimental approach of adding the drug at different time points. […]
(c) Viral inactivation (dark purple): PRRSV was pre-incubated with the compound for 1 hour in the incubator before transferring to monolayer Marc-145 cells, followed by medium change after 2 hours. […] All samples were collected and analyzed at 48 […]
hours. […] NS indicates P > 0.0332, calculated via two-way ANOVA with Dunnett’s multiple-comparison test (b and c); P-values < 0.0332 were considered significant.

PRRSV (GSWW-18 strain) = experiment: Anti-PRRSV dose-response (EC50, IFA) in PAM cells; assay type: cell-based, Porcine Reproductive and Respiratory Syndrome Virus; conditions: PAM cells
PRRSV GSWW-18 strain = experiment: PRRSV transmission to co-housed pigs; assay type: in vivo, pig; conditions: 25 mg/kg, from 0 dpi; two co-house animals uninfected
Procedure: Although the replication mechanism of PRRSV in blood is not fully understood, viremia is an undoubted marker of disease severity[22],[23]. […] On the second day post-infection, we administered NTZ at dosages of 10 mg/kg or 5 mg/kg and monitored the dynamics of PRRSV in the blood within 24 h (Fig. 4b). We observed that NTZ acted swiftly. […] Further experiments explored NTZ’s role in viral transmission (Fig. 4c).
Fig. 4 NTZ inhibition of PRRSV shedding and transmission. a Viral load in blood, and shedding in oronasal and anal swabs. Viral load or shedding in blood and oronasal swabs were quantified from 2 to 4 dpi, and in anal swabs from 2 to 5 dpi. Viral copy numbers for each pig during this period are presented. b NTZ suppression of PRRSV proliferation in blood. […] Parameters were calculated using a non-compartmental analysis (NCA). Eighteen pigs were evenly divided into three dosage groups (n = 6), each housed separately, fasted for 12 h before the experiment, and monitored by professional veterinarians for welfare and enclosure cleaning to prevent coprophagia. g Tissue distribution of NTZ’s main metabolite TIZ. Tissues were collected as per Method Pharmacokinetics and Tissue Distribution of NTZ, quantifying TIZ content at various times (n = 2). […]

CC(=O)Oc1ccccc1C(=O)Nc1ncc([N+](=O)[O-])s1 [Nitazoxanide]
PRRSV proliferation, late addition (PRRSV VR-2332; added 16 h post viral inoculation): significantly inhibited PRRSV proliferation
stage of PRRSV lifecycle affected (PRRSV VR-2332; adsorption, entry, replication, release): primarily affects PRRSV replication
IFA inhibitory effect on PRRSV (PRRSV (GSWW-18 strain); GSWW-18): dose-dependent inhibitory effect
EC50 (PRRSV (GSWW-18 strain); Porcine reproductive and respiratory syndrome virus, mean ± SEM, n = 2, unit only on axis title, read-out: EC50): 310 ± 147 nM
PRRSV transmission to co-housed animals (PRRSV GSWW-18 strain): can help limit PRRSV transmission
